In data set [1] the test system is SUDHL10 cells. The data set is described as follows: Induction of cytotoxicity (CellTiter-Glo, 5 h), SUDHL10. The settings on record: SUDHL10, 5 h. For orientation: Cellular ATP, detected with luciferase, serves as a proxy for viable cell number.
Procedure: Therefore, cytotoxicity assays were run in parallel in SUDHL5 and SUDHL10 cells.
The different cell lines were plated in culture medium (RPMI 1640 [GIBCO #22400-089] supplemented with 10% Fetal Bovine Serum) at a density of 3,300 cells in 30 μL/well in a sterile, solid black, flat bottom, polystyrene, TC-treated 384-well microplate (Corning #3571) using Multidrop Combi Reagent Dispenser. As a control, medium without cells was also added to the plate. Cells were incubated in a humidified incubator at 37° C. overnight. […] Rim wells were excluded. The cells were incubated for 5 h hours in a humidified incubator at 37° C. After this incubation, 30 μL of CellTiter-Glo® Luminescent Cell Viability reagent (Promega, G7573) was added to each well using the Multidrop Combi Reagent Dispenser, followed by 15 min incubation on a shaker at room temperature. Finally, luminescence was read at 0.1 ms, with a gain of 3000 using the PHERAstar FS microplate reader (BMG Labtech).
Data set [2] has as its system SUDHL10 cells. The data set is described as follows: Induction of caspase-3/7 activity (Caspase-Glo 3/7), SUDHL10. Format: cell-based. The settings on record: EC50, median, SUDHL10, 3 h treatment. The protocol:
(§1) Induction of Caspase-3/7 Activity Upon Treatment of Cells with Selected Compounds
(§2) The BH3-domain of MCL-1 sequesters pro-apoptotic proteins, thereby inhibiting apoptosis. In contrast, MCL-1 inhibitors are expected to antagonize this effect leading to an increase in apoptosis, which can be determined by measuring the activity of caspase-3/7.
(§3) The activity of caspase-3/7 was determined in DLBCL (Diffuse large B-cell lymphoma) cell lines (SUDHL5 and SUDHL10) upon treatment with different compounds, using the Caspase-Glo® 3/7 reagent from Promega (G8092).
(§4) Rim wells were excluded. The cells were incubated for 3 h hours in a humidified incubator at 37° C.
(§5) For the evaluation of the results, the background measured with “medium-only” was subtracted from all other values.

In data set [3] the test system is SUDHL5 cells. In words: Induction of cytotoxicity (CellTiter-Glo, 5 h), SUDHL5. The settings on record: SUDHL5, 5 h.
Data set [4] relates to SUDHL5 cells. In words: Induction of caspase-3/7 activity (Caspase-Glo 3/7), SUDHL5. Format: cell-based. The settings on record: EC50, median, SUDHL5, 3 h treatment. The protocol: as §1, §2, §3, §4, §5
The test system of data set [5] is SUDHL5 cells. In words: Antiproliferation assay (CellTiter-Glo, 72 h), SUDHL5. Format: cell-based. The following applies: IC50, median, SUDHL5, 72 h, read-out: Antiproli SUDHL5 [M] (median). The protocol:
(§6) Assessment of the Anti-Proliferative Effect of Compounds in Different Cell Lines
(§7) The impact of compounds on the proliferation of different cell lines was assessed using the CellTiter-Glo® Luminescent Cell Viability reagent from Promega (G7573).
(§8) In parallel, cells were plated in a reference (day 0) plate for time zero determination.
(§9) Rim wells were excluded. The cells were incubated for 72 h hours in a humidified incubator at 37° C. The day 0 plate was measured by adding 30 μL/well of CTG solution (CellTiter-Glo® Luminescent Cell Viability reagent, Promega G7573) to time zero wells in the reference plate followed by a 10 minutes incubation and luminescence reading at 0.1 ms. using the PHERAstar FS microplate reader (BMG Labtech).
(§10) After 72 h incubation, the treated plates were measured in the same way as the day 0 plate mentioned above.

Another data set concerns AMO-1 cells. The data set is described as follows: Antiproliferation assay (CellTiter-Glo, 72 h), AMO-1. Format: cell-based. The following applies: IC50, median, AMO-1, 72 h, read-out: Antiproli AMO-1 [M] median. How it is done:
as §6, §7, §8, §9, §10

Setting [6] is: read-out: Cytotox SUDHL10 [M] (median), IC50, median.
Setting [7] is: read-out: Cytotox SUDHL5 [M] (median), IC50, median.
Setting [8] is: Homo sapiens, SU-DHL-5, 5 h, read-out: Cytotox SUDHL5 [M] (median), IC50, median.
Where [9] appears, read: Homo sapiens, SU-DHL10, 5 h, read-out: Cytotox SUDHL10 [M] (median), IC50, median.

Structures are written as SMILES. Where a name gives a salt, the structure may show the parent alone. Read-outs that look alike come from different tables or passages of the source.

`CCc1c2c(nn1C)COCC(O)CCn1c(C(=O)O)c(CCCOc3cccc4cc(F)ccc34)c3ccc(Cl)c-2c31` (stereo not shown) [Example 102, 4-chloro-3-ethyl-7-{3-[(6-fluoronaphthalen-1-yl)oxy]propyl}-12-hydroxy-2-methyl-2,10,11,12,13,15-hexahydropyrazolo[4′,3′:9,10][1,6]oxazacycloundecino[8,7,6-hi]indole-8-carboxylic acid-N-ethylethanamine salt]: the IC50 in the data set with SUDHL10 cells [1] (setting [6]) is 8.2e-06 M; with SUDHL5 cells [3] (setting [7]), 8.4e-06 M. For the same compound, the 50% effective concentration (EC50) (in general, the concentration needed to bring the measured effect to its halfway point) in the data set with SUDHL10 cells [2] is 7.8 µM.
Take `CCc1c2c(nn1C)COCC(O)CCn1c(C(=O)O)c(CCCOc3cccc4cc(F)ccc34)c3ccc(Cl)c-2c31` (stereo not shown) [Example 101, 4-chloro-3-ethyl-7-{3-[(6-fluoronaphthalen-1-yl)oxy]propyl}-12-hydroxy-2-methyl-2,10,11,12,13,15-hexahydropyrazolo[4′,3′:9,10][1,6]oxazacycloundecino[8,7,6-hi]indole-8-carboxylic acid-N-ethylethanamine salt]: the IC50 in the data set on SUDHL10 cells [1] (setting [6]) is 7.7e-06 M; in the data set with SUDHL5 cells [3] (setting [7]), 7.3e-06 M. Moreover, the half-maximal effective concentration (EC50) came to 5.9 µM in the data set with SUDHL5 cells [4] and 6.1 µM in the data set on SUDHL10 cells [2].
Consider `CCc1nn(CCN2CCOCC2)c2c1-c1c(Cl)ccc3c(CCCOc4cccc5ccccc45)c(C(=O)O)n(c13)C/C=C\CN(C)C2` (racemic) [Example 42, (rac)-(11Z)-4-chloro-3-ethyl-14-methyl-1-[2-(morpholin-4-yl)ethyl]-7-{3-[(naphthalen-1-yl)oxy]-propyl}-10,13,14,15-tetrahydro-1H-pyrazolo[3′,4′:8,9][1,6]diazacycloundecino[10,11,1-hi]indole-8-carboxylic acid], for which the concentration for a half-maximal effect (EC50) in the data set on SUDHL5 cells [4] (Homo sapiens, SU-DHL-5, 3 h) came out at 2.8 µM; with SUDHL10 cells [2] (Homo sapiens, SU-DHL10, 3 h), 9.4 µM. The IC50 in the data set on SUDHL5 cells [5] (Homo sapiens, SU-DHL-5, 72 h) was determined as 2.7e-06 M; in the data set on SUDHL5 cells [3] (setting [8]) it was 4e-06 M.
Consider `Cc1c2c(nn1C)COCC1CCC1Cn1c(C(=O)O)c(CCCOc3cccc4ccccc34)c3ccc(Cl)c-2c31` (single isomer, unassigned; enantiomer 1) [Example 78, 3-chloro-4,5-dimethyl-15-{3-[(naphthalen-1-yl)oxy]propyl}-5,7,9,9a,10,11,11a,12-octahydrocyclobuta[3,4]pyrazolo[4′,3′:9,10][1,6]oxazacycloundecino[8,7,6-hi]indole-14-carboxylic acid (Enantiomer 1)], for which the IC50 in the data set on SUDHL10 cells [1] (setting [9]) was 3.1e-06 M; with SUDHL5 cells [3] (setting [8]), 8.2e-07 M; in the data set on AMO-1 cells (Homo sapiens, AMO1, 72 h), 3e-06 M. Moreover, the EC50 with SUDHL5 cells [4] (Homo sapiens, SU-DHL-5, 3 h) was found to be 0.67 µM; in the data set with SUDHL10 cells [2] (listed as 078), 3.8 µM.
For the compound `CCc1c2c(nn1C)CN(CCC1CCOCC1)CCCCn1c(C(=O)O)c(CCCOc3cccc4cc(F)ccc34)c3ccc(Cl)c-2c31` (single isomer, unassigned; enantiomer 2) [Example 137, 4-chloro-3-ethyl-7-{3-[(6-fluoronaphthalen-1-yl)oxy]propyl}-2-methyl-14-[2-(oxan-4-yl)ethyl]-10,11,12,13,14,15-hexahydro-2H-pyrazolo[3′,4′:8,9][1,6]diazacycloundecino[10,11,1-hi]indole-8-carboxylic acid N-ethylethanamine (Enantiomer 2)], the IC50 stood at 7.7e-06 M with SUDHL10 cells [1] (setting [9]); 5.1e-06 M in the data set on SUDHL5 cells [5] (Homo sapiens, SU-DHL-5, 72 h); 8.2e-06 M in the data set on SUDHL5 cells [3] (setting [8]); 5e-06 M in the data set with AMO-1 cells (Homo sapiens, AMO1, 72 h).
On to `CCc1c2c(nn1C)COCC1CC1Cn1c(C(=O)O)c(CCCOc3cccc4cc(F)ccc34)c3ccc(Cl)c-2c31` (single isomer, unassigned; (-)) [Example 108, (−)-3-chloro-4-ethyl-14-{3-[(6-fluoronaphthalen-1-yl)oxy]propyl}-5-methyl-5,7,9a,10,10a,11-hexahydro-9H-cyclopropa[3,4]pyrazolo[4′,3′:9,10][1,6]oxazacycloundecino[8,7,6-hi]indole-13-carboxylic acid], for which the values for the concentration for a half-maximal effect (EC50) in the data set with SUDHL5 cells [4] and in the data set on SUDHL10 cells [2] were 6.3 µM and 7.8 µM, respectively. For the same compound, the figures for the IC50 with SUDHL5 cells [5], with SUDHL5 cells [3] (setting [7]) and in the data set on AMO-1 cells were 1e-05 M, 7e-06 M and 1.3e-06 M, respectively.
With `CCc1nn(CCN2CCOCC2)c2c1-c1c(Cl)ccc3c(CCCOc4cccc5ccccc45)c(C(=O)O)n(c13)CCCCN(C)C2` (racemic) [Example 45, (rac)-4-chloro-3-ethyl-14-methyl-1-[2-(morpholin-4-yl)ethyl]-7-{3-[(naphthalen-1-yl)oxy]propyl}-10,11,12,13,14,15-hexahydro-1H-pyrazolo[3′,4′:8,9][1,6]diazacycloundecino[10,11,1-hi]indole-8-carboxylic acid], the EC50 in the data set on SUDHL5 cells [4] (Homo sapiens, SU-DHL-5, 3 h) stood at 9.4 µM. Besides, the IC50 is 7.2e-06 M in the data set with SUDHL5 cells [5] (Homo sapiens, SU-DHL-5, 72 h) and 8.1e-06 M in the data set with SUDHL5 cells [3] (setting [8]).
For `CCc1c2c(nn1C)CCCCCCn1c(C(=O)O)c(CCCOc3cccc4ccccc34)c3ccc(Cl)c-2c31` (racemic) [Example 51, (rac)-4-chloro-3-ethyl-2-methyl-7-{3-[(naphthalen-1-yl)oxy]propyl}-10,11,12,13,14,15-hexa-hydro-2H-pyrazolo[4′,3′:4,5]azacycloundecino[3,2,1-hi]indole-8-carboxylic acid], the IC50 in the data set on SUDHL10 cells [1] (setting [9]) came to 8.6e-06 M; in the data set with SUDHL5 cells [5] (Homo sapiens, SU-DHL-5, 72 h) it was 6.7e-06 M; in the data set with SUDHL5 cells [3] (setting [8]) it was 8.4e-06 M.
With `CCc1c2c(nn1C)COCC1CC1Cn1c(C(=O)O)c(CCCOc3cccc4cc(F)ccc34)c3ccc(Cl)c-2c31` (single isomer, unassigned; (-)) [Example 105, (−)-3-chloro-4-ethyl-14-{3-[(6-fluoronaphthalen-1-yl)oxy]propyl}-5-methyl-5,7,9a,10,10a,11-hexahydro-9H-cyclopropa[3,4]pyrazolo[4′,3′:9,10][1,6]oxazacycloundecino[8,7,6-hi]indole-13-carboxylic acid N-ethylethanamine salt], the IC50 with SUDHL10 cells [1] (setting [6]) was determined as 2.2e-07 M. Also, the half-maximal effective concentration (EC50) in the data set with SUDHL5 cells [4] was 0.13 µM; in the data set with SUDHL10 cells [2], 0.12 µM.
In the data set with SUDHL5 cells [4] (Homo sapiens, SU-DHL-5, 3 h), `CCc1c2c(nn1C)CNCCCCn1c(C(=O)O)c(CCCOc3cccc4cc(F)ccc34)c3ccc(Cl)c-2c31` (racemic) [Example 130, (rac)-4-chloro-3-ethyl-7-{3-[(6-fluoronaphthalen-1-yl)oxy]propyl}-2-methyl-10,11,12,13,14,15-hexahydro-2H-pyrazolo[3′,4′:8,9][1,6]diazacycloundecino[10,11,1-hi]indole-8-carboxylic acid] yielded an EC50 of 7.3 µM. Also, the IC50 in the data set on SUDHL5 cells [5] (Homo sapiens, SU-DHL-5, 72 h) is 7.5e-06 M; in the data set on SUDHL5 cells [3] (setting [8]), 7.1e-06 M; in the data set on AMO-1 cells (Homo sapiens, AMO1, 72 h), 6.3e-06 M.
As for `CCc1c2c(nn1C)CN(C)CCCn1c(C(=O)O)c(CCCOc3cccc4cc(F)ccc34)c3ccc(Cl)c-2c31` [Example 114, (−)-2-chloro-11-ethyl-1-{3-[(6-fluoronaphthalen-1-yl)oxy]propyl}-7,10-dimethyl-4,5,6,7,8,10-hexahydropyrazolo[3′,4′:7,8][1,5]diazecino[9,10,1-hi]indole-2-carboxylic acid salt], the IC50 in the data set with SUDHL10 cells [1] (setting [6]) was found to be 5.9e-06 M; with SUDHL5 cells [3] (setting [7]), 5.7e-06 M; in the data set on AMO-1 cells, 4.4e-06 M. The values for the EC50 in the data set with SUDHL5 cells [4] and in the data set with SUDHL10 cells [2] were 4.3 µM and 6.3 µM, respectively.
On to `CCc1nn(C)c2c1-c1c(Cl)ccc3c(CCCOc4cccc5cc(F)ccc45)c(C(=O)O)n(c13)CCCCN(C)C2` (single isomer, unassigned; enantiomer 1) [Example 40, 4-chloro-3-ethyl-7-{3-[(6-fluoronaphthalen-1-yl)oxy]propyl}-1,14-dimethyl-10,11,12,13,14,15-hexahydro-1H-pyrazolo[3′,4′:8,9][1,6]diazacycloundecino[10,11,1-hi]indole-8-carboxylic acid (Enantiomer 1)], for which the EC50 in the data set on SUDHL5 cells [4] (Homo sapiens, SU-DHL-5, 3 h) is 0.2 µM. For the same compound, the IC50 in the data set with SUDHL5 cells [5] (Homo sapiens, SU-DHL-5, 72 h) is 2e-07 M; in the data set with AMO-1 cells (Homo sapiens, AMO1, 72 h), 3.6e-07 M.

The values above are taken from patent US11478451B1, “Macrocyclic chlorine substituted indole derivatives” (Bayer Aktiengesellschaft, priority 2017, dated 2022).
